From US8742106B2 (Novartis AG, priority 2009, dated 2014)

How the values were obtained:
[1] = target: human orexin 2 receptors (Homo sapiens (Human), UniProt O43614); assay: Calcium Accumulation in Cells (FLIPR), antagonism of orexin A; assay type: cell-based; settings: antagonism of orexin A, Cheng-Prusoff corrected; read-out: FLIPR hOx2R Ki
Experimental: (§1) Calcium Accumulation in Cells (FLIPR):
Cells expressing human orexin 1 or human orexin 2 receptors, were seeded at 8,000 cells/well in 384 well black-walled clear bottom, poly-D-lysine coated plates.
On the day of the experiment, the cells seeded in black plates were treated with assay buffer containing the Ca^2+ sensitive fluorescent dye Fluo4-AM (2 μM), and probenecid (0.1 mM). After 1 h plates were washed twice with, and resuspended in, assay buffer containing probenecid (0.1 mM) using a multi plate washer. […] Fluorescence measurements were then continued every 1 S for 120 S followed by every 4 S for 240 S.
(§2) The measurements were typically made in two sequences:
(§3) In the first round, compounds of formula (I) or (I′) were tested alone, to detect possible agonist activity. Compounds of formula I or I′ were tested usually in a concentration range from 10^−9 M to 10^−5 M.
(§4) In the second round, performed one hour later (to allow for equilibration), Orexin A was tested either in the absence (calibration curves, Orexin A agonist controls) or in the presence of compounds of formula (I) or (I′) to determine antagonism.

[2] = target: human orexin 1 receptors (Homo sapiens (Human), UniProt O43613); assay: as above; assay type: cell-based; settings: antagonism of orexin A, Cheng-Prusoff corrected; read-out: FLIPR hOx1R Ki
Experimental: as §1
Cells expressing human orexin 1 or human orexin 2 receptors, were seeded at 8,000 cells/well in 384 well black-walled clear bottom, poly-D-lysine coated plates. After 24 h, the medium was removed and cells were washed once with phosphate buffered saline and serum-deprived overnight in assay buffer (130 mM NaCl, 5.4 mM KCl, 1.8 mM CaCl2, 0.8 mM MgSO4, 0.9 mM NaH2PO4, 25 mM glucose, 20 mM HEPES, pH 7.4) containing bovine serum albumin (1% w/v).
On the day of the experiment, the cells seeded in black plates were treated with assay buffer containing the Ca^2+ sensitive fluorescent dye Fluo4-AM (2 μM), and probenecid (0.1 mM). After 1 h plates were washed twice with, and resuspended in, assay buffer containing probenecid (0.1 mM) using a multi plate washer. The plates were placed into a FLIPR II (Fluorometric Imaging Plate Reader, Molecular Devices, Sunnyvale, Calif., USA) and baseline fluorescence (fluorescence light units, FLU) was measured (5 measurements, 2 S each; laser excitation 488 nm at 0.6-1 W, CCD camera exposure 0.4 s) before addition of buffer alone (basal) or containing test compounds (either compound of formula (I) or (I′) alone, agonist alone or agonist in the presence of various concentrations of compounds of formula (I) or (I′)). Fluorescence measurements were then continued every 1 S for 120 S followed by every 4 S for 240 S.
as §2, §3, §4

Sequence of human orexin 2 receptors (O43614 whole entry): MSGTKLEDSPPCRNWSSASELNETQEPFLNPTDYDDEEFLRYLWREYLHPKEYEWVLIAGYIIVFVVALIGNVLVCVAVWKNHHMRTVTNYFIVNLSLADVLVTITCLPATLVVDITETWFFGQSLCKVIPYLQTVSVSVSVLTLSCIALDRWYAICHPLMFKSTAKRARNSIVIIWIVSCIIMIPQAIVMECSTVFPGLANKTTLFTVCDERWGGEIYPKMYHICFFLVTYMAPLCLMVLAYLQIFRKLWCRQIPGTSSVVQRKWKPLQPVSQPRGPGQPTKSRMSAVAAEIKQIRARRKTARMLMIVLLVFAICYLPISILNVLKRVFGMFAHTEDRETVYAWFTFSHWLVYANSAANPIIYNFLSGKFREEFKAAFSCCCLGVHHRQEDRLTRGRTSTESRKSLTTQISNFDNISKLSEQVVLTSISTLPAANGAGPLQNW
Sequence of human orexin 1 receptors (O43613 whole entry): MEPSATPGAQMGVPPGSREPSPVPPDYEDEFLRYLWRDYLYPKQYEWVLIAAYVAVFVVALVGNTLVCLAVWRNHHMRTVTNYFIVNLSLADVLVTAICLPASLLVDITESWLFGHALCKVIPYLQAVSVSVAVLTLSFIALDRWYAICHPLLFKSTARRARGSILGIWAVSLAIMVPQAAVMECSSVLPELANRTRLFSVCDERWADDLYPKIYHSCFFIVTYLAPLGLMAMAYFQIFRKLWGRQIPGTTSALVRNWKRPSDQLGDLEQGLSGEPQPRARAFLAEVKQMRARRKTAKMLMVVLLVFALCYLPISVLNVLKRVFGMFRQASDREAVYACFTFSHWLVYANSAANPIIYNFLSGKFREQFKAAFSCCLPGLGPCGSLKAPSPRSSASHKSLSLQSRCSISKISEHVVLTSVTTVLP

Structure (SMILES)	Ki [1] [µM]	Ki [2] [µM]
Cc1n[nH]c(C)c1C(C)NC(=O)COc1cc(C)c2c(C3CC3)nn(C)c2n1 (stereo not drawn) [Example 1.76, 2-(3-cyclopropyl-1,4-dimethyl-1H-pyrazolo[3,4-b]pyridin-6-yloxy)-N-(1-(3,5-dimethyl-1H-pyrazol-4-yl)ethyl)acetamide]	0.606	0.395
C[C@H](NC(=O)CNc1cc(C(F)(F)F)c2c(-c3ccccc3)nn(C)c2n1)c1ccccc1 [Example 3.1, (S)-2-(1-methyl-3-phenyl-4-(trifluoromethyl)-1H-pyrazolo[3,4-b]pyridin-6-ylamino)-N-(1-phenylethyl)acetamide]	1.14	0.357
Cc1ccc([C@H](C)NC(=O)COc2cc(C)c3c(-c4ccnn4C)nn(C)c3n2)cc1 [Example 4.3, (S)-2-(1,4-dimethyl-3-(1-methyl-1H-pyrazol-5-yl)-1H-pyrazolo[3,4-b]pyridin-6-yloxy)-N-(1-p-tolylethyl)acetamide]	2.22	2.68
Cc1ccc([C@H](C)NC(=O)COc2cc(C)c3c(-c4cnc(C)n4C)nn(C)c3n2)cc1 [Example 4.4, (S)-2-(3-(1,2-dimethyl-1H-imidazol-5-yl)-1,4-dimethyl-1H-pyrazolo[3,4-b]pyridin-6-yloxy)-N-(1-p-tolylethyl)acetamide]	0.725	0.799
Cc1ccc([C@H](C)NC(=O)COc2cc(C)c3c(-c4cc(C)nn4C)nn(C)c3n2)cc1 [Example 4.5, (S)-2-(3-(1,3-dimethyl-1H-pyrazol-5-yl)-1,4-dimethyl-1H-pyrazolo[3,4-b]pyridin-6-yloxy)-N-(1-p-tolylethyl)acetamide]	0.923	0.67
Cc1ccc([C@H](C)NC(=O)COc2cc(C)c3c(-c4cncn4C)nn(C)c3n2)cc1 [Example 4.11, (S)-2-(1,4-dimethyl-3-(1-methyl-1H-imidazol-5-yl)-1H-pyrazolo[3,4-b]pyridin-6-yloxy)-N-(1-p-tolylethyl)acetamide]	1.63	4.33
COc1cncc(-c2nn(C)c3nc(OCC(=O)N[C@@H](C)c4ccc(C)cc4)cc(C)c23)n1 [Example 4.12, (S)-2-(3-(6-methoxypyrazin-2-yl)-1,4-dimethyl-1H-pyrazolo[3,4-b]pyridin-6-yloxy)-N-(1-p-tolylethyl)acetamide]	0.202	0.24
Cc1ccc([C@H](C)NC(=O)COc2cc(C)c3c(-c4cn(C)cn4)nn(C)c3n2)cc1 [Example 4.13, (S)-2-(1,4-dimethyl-3-(1-methyl-1H-imidazol-4-yl)-1H-pyrazolo[3,4-b]pyridin-6-yloxy)-N-(1-p-tolylethyl)acetamide]	0.626	1.16
Cc1nn(C)c(C)c1C(C)NC(=O)COc1cc(C(F)F)c2c(C3CC3)nn(C)c2n1 (stereo not drawn) [Example 6.9, 2-(3-cyclopropyl-4-(difluoromethyl)-1-methyl-1H-pyrazolo[3,4-b]pyridin-6-yloxy)-N-(1-(1,3,5-trimethyl-1H-pyrazol-4-yl)ethyl)acetamide]	0.527	0.778
COc1ccc(C(C)NC(=O)COc2cc(C(F)F)c3c(C4CC4)nn(C)c3n2)cn1 (stereo not drawn) [Example 6.10, 2-(3-cyclopropyl-4-(difluoromethyl)-1-methyl-1H-pyrazolo[3,4-b]pyridin-6-yloxy)-N-(1-(6-methoxypyridin-3-yl)ethyl)acetamide]	0.184	0.516
Cc1ccc([C@H](C)NC(=O)COc2cc(C(C)C)c3c(C4CC4)nn(C)c3n2)cc1 [Example 6.11, (S)-2-(3-cyclopropyl-4-isopropyl-1-methyl-1H-pyrazolo[3,4-b]pyridin-6-yloxy)-N-(1-p-tolylethyl)acetamide]	0.208	0.691
Cc1nn(C)c(C)c1C(C)NC(=O)COc1cc(C(F)(F)F)c2c(C3CC3)nn(C)c2n1 (stereo not drawn) [Example 6.12, 2-(3-cyclopropyl-1-methyl-4-(trifluoromethyl)-1H-pyrazolo[3,4-b]pyridin-6-yloxy)-N-(1-(1,3,5-trimethyl-1H-pyrazol-4-yl)ethyl)acetamide]	0.165	0.68
